Experimental data as given in patent US9932308B2, “Method for producing indoline compound” (UBE INDUSTRIES, LTD., priority 2014, dated 2018).
Entries after “also recorded” stand apart in the source; their conditions may differ.

Key:
Assay type in all cases: physicochemical
[1] = Thermal stability test of crystal of compound (1) (change in content of compound (E-3) on heating); conditions: for Content (Y) of compound (E-3) measured after test: after heating of the crystal at 70° C. for 192 hours; for Content (Y) of compound (E-3) measured after test / Content (X) of compound (E-3) measured before test: HPLC peak area ratio, 225 nm; for Content (X) of compound (E-3) measured before test: before heating; for Thermal stability of the crystal (conclusion in words) / [Y−X] (difference between Y and X, increase in content of compound (E-3)): heating at 70° C. for 192 hours
Description: In the present specification, a “γ-crystal with good stability” is identified by the thermal stability test described later and is one for which [Y−X] (i.e. a difference between Y and X) is less than 0.040% when the content of the compound (E-3) with respect to the total amount of the crystal is expressed as X % and the content of the compound (E-3) as measured after heating of the crystal at 70° C. for 192 hours is expressed as Y %. The crystal structure of the indoline compound is determined using a powder X-ray diffractometer.
The thermal stability test is a test for evaluating a change in the content of the compound (E-3) in the γ-crystal of the compound (1) caused when the crystal is heated at 70° C. for 192 hours. The pre-test content X (%) of the compound (E-3) with respect to the total amount of the crystal and the post-heating content Y (%) of the compound (E-3) with respect to the total amount of the crystal are measured, and the amount of change is calculated by the formula Y−X and expressed as [Y−X]. The content of the compound (E-3) may be on a mass basis or a volume basis. To measure the content of the compound (E-3) with increased accuracy, the measurement may be performed using high-performance liquid chromatography (HPLC). When the content of the compound (E-3) is measured using HPLC, the content can be measured as a value obtained as follows: a peak area of a peak observed in a chromatogram and attributed to the compound (E-3) is divided by the sum of the peak areas of all the peaks.
Compound analysis was performed in the same manner as in the above examples of step A, except that the measurement wavelength and the mobile phase were changed as follows.
Measurement wavelength: 225 nm
Mobile phase and measurement method: 1.0 g of ammonium formate and water were mixed to a volume of 1000 mL, and then 0.53 mL of formic acid was added to adjust the pH of the solution to 3.7. The measurement was performed as the volume ratio between the solution and acetonitrile was varied from 4:1 to 1:1.
(§1) The content of the compound (E-3) was expressed as a value calculated as follows: a peak area of a peak observed in a chromatogram and attributed to the compound (E-3) was divided by the sum of peak areas of all peaks observed in the chromatogram.

[2] = Crushing stability test of crystals of compound (1) (crystal form after crushing); conditions: crushed in a mortar with a pestle
Description: The γ-crystal of the compound (1) in the present specification may contain a solvent or the like in addition to the compound (1), as described in Patent Literature 3. In particular, “α-crystal”, “β-crystal”, and “γ-crystal” are each identified by a method described in Patent Literature 3 and, specifically, the identification is performed through measurement of powder X-ray diffraction.
Analysis equipment: Powder X-ray diffractometer, RINT-TTR III (manufactured by Rigaku Corporation)
(§2) An α-crystal, a β-crystal, and a γ-crystal were produced, and each of them was subjected to a photostability test and a crushing stability test under the following conditions.
Each crystal was put in a mortal and crushed with a pestle.

[3] = Photostability test of crystals of compound (1); conditions: 4000-lux light at 25° C., relative humidity 60%, 336 hours
Description: as §1, §2
Each crystal was left under irradiation of 4000-lux light at 25° C. and a relative humidity of 60% for 336 hours.

SMILES | Content (Y) of compound (E-3) measured after test [1] [%] | Content (X) of compound (E-3) measured before test [1] [%] | Thermal stability of the crystal (conclusion in words) [1] | [Y−X] (difference between Y and X, increase in content of compound (E-3)) [1] [%] | Result of crushing stability test (phase transition) [2] | Stability to light (conclusion in words) [3]
C[C@H](Cc1cc2c(c(C(N)=O)c1)N(CCCO)CC2)NCCOc1ccccc1OCC(F)(F)F [Comparative Example C1, (−)-1-(3-hydroxypropyl)-5-[(2R)-2-({2-[2-(2,2,2-trifluoroethoxy)phenoxy]ethyl}amino)propyl]-2,3-dihydro-1H-indole-7-carboxamide, reference compound] | 0.133 | 0.091 | unstable | 0.042 |  | 
C[C@H](Cc1cc2c(c(C(N)=O)c1)N(CCCO)CC2)NCCOc1ccccc1OCC(F)(F)F [Example C1, (−)-1-(3-hydroxypropyl)-5-[(2R)-2-({2-[2-(2,2,2-trifluoroethoxy)phenoxy]ethyl}amino)propyl]-2,3-dihydro-1H-indole-7-carboxamide] | 0.044 | 0.043 | stable | 0.001 |  | 
C[C@H](Cc1cc2c(c(C(N)=O)c1)N(CCCO)CC2)NCCOc1ccccc1OCC(F)(F)F [Example C2, (−)-1-(3-hydroxypropyl)-5-[(2R)-2-({2-[2-(2,2,2-trifluoroethoxy)phenoxy]ethyl}amino)propyl]-2,3-dihydro-1H-indole-7-carboxamide] | 0.088 | 0.076 | stable | 0.012 |  | 
C[C@H](Cc1cc2c(c(C(N)=O)c1)N(CCCO)CC2)NCCOc1ccccc1OCC(F)(F)F [Example C3, (−)-1-(3-hydroxypropyl)-5-[(2R)-2-({2-[2-(2,2,2-trifluoroethoxy)phenoxy]ethyl}amino)propyl]-2,3-dihydro-1H-indole-7-carboxamide] | 0.097 | 0.071 | stable | 0.026 |  | 
C[C@H](Cc1cc2c(c(C(N)=O)c1)N(CCCO)CC2)NCCOc1ccccc1OCC(F)(F)F [Example C4, (−)-1-(3-hydroxypropyl)-5-[(2R)-2-({2-[2-(2,2,2-trifluoroethoxy)phenoxy]ethyl}amino)propyl]-2,3-dihydro-1H-indole-7-carboxamide] | 0.091 | 0.067 | stable | 0.024 |  | 
C[C@H](Cc1cc2c(c(C(N)=O)c1)N(CCCO)CC2)NCCOc1ccccc1OCC(F)(F)F [α-crystal, (−)-1-(3-hydroxypropyl)-5-[(2R)-2-({2-[2-(2,2,2-trifluoroethoxy)phenoxy]ethyl}amino)propyl]-2,3-dihydro-1H-indole-7-carboxamide] |  |  |  |  | transformed into a γ-crystal; also recorded: the most unstable | the most unstable
C[C@H](Cc1cc2c(c(C(N)=O)c1)N(CCCO)CC2)NCCOc1ccccc1OCC(F)(F)F [β-crystal, (−)-1-(3-hydroxypropyl)-5-[(2R)-2-({2-[2-(2,2,2-trifluoroethoxy)phenoxy]ethyl}amino)propyl]-2,3-dihydro-1H-indole-7-carboxamide] |  |  |  |  | phase transition was not observed | 
C[C@H](Cc1cc2c(c(C(N)=O)c1)N(CCCO)CC2)NCCOc1ccccc1OCC(F)(F)F [γ-crystal, (−)-1-(3-hydroxypropyl)-5-[(2R)-2-({2-[2-(2,2,2-trifluoroethoxy)phenoxy]ethyl}amino)propyl]-2,3-dihydro-1H-indole-7-carboxamide] |  |  |  |  | phase transition was not observed; also recorded: does not undergo phase transition even when subjected to crushing | good stability to light
